Measured values: paper PMC6433232, “Targeting mitochondria in cancer therapy could provide a basis for the selective anti-cancer activity” (PLoS ONE, 2019)

Test system: primary acute myeloid leukemia (AML) cells obtained from patients
Assay: Kinase inhibitor library screening with and without NSC130362, primary AML cells
Type: cell-based, Human
Details: ratio of EC50 for inhibitor to EC50 for inhibitor/NSC130362 combination, NSC130362 10 μM

Row | SMILES | EC50 decrease, fold (Screen N 3) [fold] | EC50 decrease, fold (Screen N 1) [fold] | EC50 decrease, fold (Screen N 2) [fold]
1 | CCCCCNC(=O)N1CCC(CN(Cc2ccc(Cl)cc2)Cc2ccc([N+](=O)[O-])s2)C1 (centres unmarked) [SR9011] | 82.4 |  | 
2 | CC(C)n1nc(-c2ccc3oc(N)nc3c2)c2c(N)ncnc21 [INK-128] | 0.0858 | 0.0632 | 0.9
3 | CO[C@H]1C[C@@H]2CC[C@@H](C)[C@@](O)(O2)C(=O)C(=O)N2CCCC[C@H]2C(=O)O[C@H]([C@H](C)C[C@@H]2CC[C@@H](O)[C@H](OC)C2)CC(=O)[C@H](C)/C=C(\C)[C@@H](O)[C@@H](OC)C(=O)[C@H](C)C[C@H](C)/C=C/C=C/C=C/1C [Rapamycin] |  |  | 1.0
4 | CS(=O)(=O)c1ccc(C(=O)Nc2ccc(Cl)c(-c3ccccn3)c2)c(Cl)c1 [Vismodegib (GDC-0449)] | 1.0 | 1.0 | 1.0
5 | CC(C)(C)c1cc(NC(=O)Nc2ccc(-c3cn4c(n3)sc3cc(OCCN5CCOCC5)ccc34)cc2)no1 [Quizartinib (AC220)] |  |  | 1.0
6 | CC(C)NC[C@@H](C(=O)N1CCN(c2ncnc3c2[C@H](C)C[C@H]3O)CC1)c1ccc(Cl)cc1 [Ipatasertib (GDC-0068)] |  |  | 1.0
7 | Cc1cc(Nc2nc(N[C@@H](C)c3ncc(F)cn3)ncc2Cl)n[nH]1 [AZD1480] | 0.365 | 497.3 | 1.0
8 | CSc1cccc(Nc2ncc3cc(-c4c(Cl)cccc4Cl)c(=O)n(C)c3n2)c1 [PD173955] | 5.1 | 0.9 | 1.0
9 | Nc1nc(N)c2nc(-c3cccc(O)c3)c(-c3cccc(O)c3)nc2n1 [TG100-115] | 1.0 | 1.8 | 1.0
10 | CC1(C)CCC(CN2CCN(c3ccc(C(=O)NS(=O)(=O)c4ccc(NCC5CCOCC5)c([N+](=O)[O-])c4)c(Oc4cnc5[nH]ccc5c4)c3)CC2)=C(c2ccc(Cl)cc2)C1 [ABT-199 (BH3 mimetic)] | 9.4 | 7.4 | 1.0
11 | Nc1nc(Nc2ccc(S(N)(=O)=O)cc2)nn1C(=O)c1c(F)cccc1F [JNJ-7706621] | 0.182 | 3.7 | 1.0
12 | O=C(c1ccc(/C=C/c2n[nH]c3ccccc23)cc1)N1CCNCC1 [KW-2449] | 0.9 | 1.6 | 1.0
13 | COCCn1c2c([n+](Cc3cnccn3)c1C)C(=O)c1ccccc1C2=O [YM-155] | 1.0 | 10.9 | 4.4
14 | O=C(NC1CCNCC1)c1[nH]ncc1NC(=O)c1c(Cl)cccc1Cl [AT7519] | 1.1 | 9.7 | 2.2
15 | CCCS(=O)(=O)Nc1ccc(F)c(C(=O)c2c[nH]c3ncc(-c4ccc(Cl)cc4)cc23)c1F [Vemurafenib (PLX-4032)] |  | 1.0 | 1.0
16 | C#Cc1cccc(Nc2ncnc3cc(OCCOC)c(OCCOC)cc23)c1 [Erlotinib] |  |  | 1.0
17 | Cn1c(Nc2ccc(C(F)(F)F)cc2)nc2cc(Oc3ccnc(-c4ncc(C(F)(F)F)[nH]4)c3)ccc21 [RAF265 (CHIR-265)] | 0.0556 | 2.6 | 0.8
18 | Cn1cc(-c2ccc3nnc(Sc4ccc5ncccc5c4)n3n2)cn1 [SGX-523] | 66.4 | 1.6 | 1.0

Row | SMILES | EC50 decrease, fold (Screen N 3) [fold] | EC50 decrease, fold (Screen N 1) [fold] | EC50 decrease, fold (Screen N 2) [fold]
19 | Nc1ncn([C@@H]2O[C@H](CO)[C@@H](O)[C@H]2O)c(=O)n1 [Azacytidine] | 266.4 | 1.1 | 1.0
20 | COc1cc(Oc2ccnc3cc(OC)c(OC)cc23)ccc1NC(=O)NC(C)c1nccs1 (centres unmarked) [KI20227] | 1.0 | 0.6 | 1.0
21 | CCCCCCCCCCCCc1ccc(S(=O)(=O)Nc2nncs2)cc1 [PHT-427] | 1.0 | 1.0 | 1.0
22 | CC1(C)CNc2cc(NC(=O)c3cccnc3NCc3ccncc3)ccc21 [Motesanib (AMG-706)] | 1.0 | 1.0 | 1.0
23 | Cc1sc2c(c1C)C(c1ccc(Cl)cc1)=N[C@@H](CC(=O)Nc1ccc(O)cc1)c1nnc(C)n1-2 [OTX-015] |  |  | 0.8
24 | CN(NC(=O)CC(=O)NN(C)C(=S)c1ccccc1)C(=S)c1ccccc1 [Elesclomol] | 1.1 | 1.1 | 302.2
25 | Cc1cc(-c2ncc(CC(=O)Nc3ccc(-c4cnccn4)cn3)cc2C)ccn1 [LGK974] |  |  | 1.0
26 | COc1ccc(COc2ccc(Cc3cnc(N)nc3N)cc2OC)cc1 [GW-2580] |  |  | 1.0
27 | C[C@H](NC(=O)Cc1cc(F)cc(F)c1)C(=O)N[C@@H]1C(=O)N(C)c2ccccc2-c2ccccc21 [DBZ] | 0.374 | 0.951 | 1.0
28 | CCc1nc(C(N)=O)c(Nc2ccc(N3CCC(N4CCN(C)CC4)CC3)c(OC)c2)nc1NC1CCOCC1 [Gilteritinib (ASP-2215)] | 1.3 | 0.2 | 
29 | CC(=O)Nc1cccc(-n2c(=O)n(C3CC3)c(=O)c3c(Nc4ccc(I)cc4F)n(C)c(=O)c(C)c32)c1 [Trametinib (GSK1120212)] | 183.2 | 1.4 | 398.5
30 | Cc1ccc(-n2nc(C(C)(C)C)cc2NC(=O)Nc2ccc(OCCN3CCOCC3)c3ccccc23)cc1 [Doramapimod (BIRB 796)] | 511.2 | 0.15 | 1.0
31 | Cc1cn(-c2cc(NC(=O)c3ccc(C)c(Nc4nccc(-c5cccnc5)n4)c3)cc(C(F)(F)F)c2)cn1 [Nilotinib] | 1.0 |  | 1.0
32 | Oc1ccc([C@H]2COc3cc(O)ccc3C2)cc1 [AUS-131] |  |  | 1.0
33 | CC(C)(C)c1cnc(CSc2cnc(NC(=O)C3CCNCC3)s2)o1 [SNS-032 (BMS-387032)] | 14.0 | 6.0 | 0.9
34 | Nc1cccc2c1CN(C1CCC(=O)NC1=O)C2=O (centres unmarked) [Lenalidomide] | 1.4 |  | 
35 | Cc1noc2c1-c1ccccc1C(c1ccc(Cl)cc1)=N[C@H]2CC(N)=O [CPI-0610] |  |  | 0.8
